This is an account of results in patent US7767664B2, “Plant growth regulation” (Bayer CropScience AG, priority 2004, dated 2010).

Test [1] has as its system maize (Zea mays, variety “LORENZO”). Kind of test: Root growth assay, maize seed treatment. As to conditions: Root Growth of 100 is set as the standard, wet root weight 16 days post treatment. It counts as in vivo. An excerpt:
Plant roots are a highly proliferative tissue that allows an easy accessible, cheap and short term screening method for plant growth regulators. […] By using this root assay one is enabled to determine the effect of a seed treatment to root growth and/or germination and/or changes in habitat of germinated plants in order to identify the possible use as a yield enhancer. Two seeds of wheat (Triticum aestivum, variety “TRISO”) or 1 seed of maize (Zea mays, variety “LORENZO”) per hole in a plastic tray which contains an architecture of 8×13 holes were placed on compost soil covered with sand. […] Six replicates in a row of each compound and concentration were done. The outer rim of the above defined plastic tray was untreated to avoid false negative effects and the middle row (No. 7) was used as untreated control. The treated seeds were allowed to dry for approx. 4 hours and subsequently covered with sand and watered. The trays were stored in climate chambers with 14 hours lighting at a temperature of 24° C. (±2) at daytime and 16° C. (±2) at night and relative humidity (rH) of 60% and daily watered. Assessments were done 16 (±2) days post treatment by counting the germinated plants and assessing the phytotoxicity symptoms and percentage. In addition, the roots were washed out and the shoots were cut directly above the seed and the wet roots were placed on dry paper towels for approximately 30 minutes and weighted afterwards. This procedure provides a similar grade of moisture to the roots so that a comparison of the weights is possible.

Test [2] concerns wheat (Triticum aestivum, variety “TRISO”). Nature of the test: Root growth assay, wheat seed treatment. Format: in vivo. Particulars: Root Growth of 100 is set as the standard, wet root weight 16 days post treatment. An excerpt: Plant roots are a highly proliferative tissue that allows an easy accessible, cheap and short term screening method for plant growth regulators. The results obtained can easily be transferred to the overall effects on a plant of plant growth regulators identified by such a system. By using this root assay one is enabled to determine the effect of a seed treatment to root growth and/or germination and/or changes in habitat of germinated plants in order to identify the possible use as a yield enhancer. Two seeds of wheat (Triticum aestivum, variety “TRISO”) or 1 seed of maize (Zea mays, variety “LORENZO”) per hole in a plastic tray which contains an architecture of 8×13 holes were placed on compost soil covered with sand. These seeds were treated with 100 μl/hole, which creates an application volume of approx. 1200 l/ha, of a compound solution at active ingredient rates equivalent to 100, 10 and 1 g a.i./ha of each compound using an robotic application system (Lizzy Spray Robotics). Six replicates in a row of each compound and concentration were done. The outer rim of the above defined plastic tray was untreated to avoid false negative effects and the middle row (No. 7) was used as untreated control. The treated seeds were allowed to dry for approx. 4 hours and subsequently covered with sand and watered. The trays were stored in climate chambers with 14 hours lighting at a temperature of 24° C. (±2) at daytime and 16° C. (±2) at night and relative humidity (rH) of 60% and daily watered. Assessments were done 16 (±2) days post treatment by counting the germinated plants and assessing the phytotoxicity symptoms and percentage. In addition, the roots were washed out and the shoots were cut directly above the seed and the wet roots were placed on dry paper towels for approximately 30 minutes and weighted afterwards. This procedure provides a similar grade of moisture to the roots so that a comparison of the weights is possible.
The effects observed concerning Root Growth given in column 2 (Root Growth of “100” is set as the standard) are directed to concentrations that are equivalent to 100, 10, 1 g a.i./ha, each.

`O=C1CCC(=O)c2cc(Cl)ccc2N1` [Compound 3.4]: the “Root Growth” value in test [1] (1 g a.i./ha) stood at 85; in test [1] (10 g a.i./ha), 121; in test [1] (100 g a.i./ha), 144; in test [2] (1 g a.i./ha), 125; in test [2] (10 g a.i./ha), 126; in test [2] (100 g a.i./ha), 195.
Take `CCNC(=S)NN=C1CCC(=O)Nc2cc(OC)c(OC)cc21` [Compound 4.5]: the “Root Growth” value in test [2] (1 g a.i./ha) stood at 149; in test [2] (10 g a.i./ha), 106; in test [2] (100 g a.i./ha), 79.
Consider `COc1cc2c(cc1OC)C(=O)CCC(=O)N2` [Compound 3.2, 7,8-Dimethoxy-1H-benzazepine-2,5 (3H, 4H)-dione], for which the “Root Growth” value in test [1] (1 g a.i./ha) was found to be 96; in test [1] (10 g a.i./ha), 89; in test [1] (100 g a.i./ha), 123; in test [2] (1 g a.i./ha), 133; in test [2] (10 g a.i./ha), 131; in test [2] (100 g a.i./ha), 98.
For `O=C1CCC(=O)c2ccccc2N1` [Compound 3.1], the “Root Growth” value in test [1] (1 g a.i./ha) was 86; in test [1] (10 g a.i./ha) it was 150; in test [1] (100 g a.i./ha), 86; in test [2] (1 g a.i./ha) it was 98; in test [2] (10 g a.i./ha), 125; in test [2] (100 g a.i./ha), 135.
Take `O=C1CCC(=NNc2cc(Cl)cc(Cl)c2)c2cc(Br)ccc2N1` [Compound 4.1]: the “Root Growth” value in test [1] (1 g a.i./ha) turned out to be 131; in test [1] (10 g a.i./ha), 102; in test [1] (100 g a.i./ha), 136.
